System: 406 cancer cell lines, 73 blood tumor cell lines and 333 solid tumor cell lines
Assay: OmniScreen drug efficacy on cancer cell lines, fitted area under curve (AUC) of dose-response
Assay type: cell-based
Parameters: AUCs: unit not given beside the values
Description: Predictive biomarkers for genes indicating responsiveness to a therapeutic compound can be determined using a cell-based screening technique, such as that offered under the name OmniScreen™ (Crown Biosciences).
In one experimental study, predictive biomarkers were determined for Compound A197 efficacy on 406 cancer cell lines, 73 blood tumor cell lines and 333 solid tumor cell lines. Genomic data for the cell lines was downloaded from the Cancer Cell Line Encyclopedia Project (CCLE) website. Driver mutations were predicted on the Cancer Genome Interpreter Database; only driver mutations were used in the mutation related analysis.
Dose-response curves were fitted by the 4-parameter model:
in which top and bottom are the two asymptotes of the sigmoidal curve, EC50 is the relative IC50, and concentration x is in log−10 scale. To accommodate experimental errors, Bottom was allowed to go down to −20%, and Top was allowed to go up to 120%. The fitting error of a model is measured by
σECS0 is the standard error of EC50. In general, such fitting error should be less than 40% for a model to be considered acceptable. The fitted area under curve (AUC) is calculated by
where a=log(3, 10) and b=log(30000,10).

Cc1nn(-c2nc(-c3ccc(C(F)(F)F)cc3)c(SC(C)C)s2)c(C(=O)O)c1-c1cccc(F)c1 [Compound A197, 4-(3-fluorophenyl)-1-(5-(isopropylthio)-4-(4-(trifluoromethyl)phenyl)thiazol-2-yl)-3-methyl-1H-pyrazole-5-carboxylic acid]
AUCs (KHOS/NP, Bone): 3.37
AUCs (KP4, Pancreas): 2.84
IC50 (KP4, Pancreas): 0.52 µM
AUCs (KU812, Blood): 3.91
AUCs (KYSE-410, Esophagus): 3.51
AUCs (L-82, Blood): 2.94
AUCs (LN-229, Brain&Nerves): 3.59
AUCs (LNCaP clone FGC, Prostate): 2.48
AUCs (LS123, Colorectum): 4
AUCs (LS1034, Colorectum): 3.29
AUCs (MCF7, Breast): 3.76
AUCs (MDA-MB-415, Breast): 3.49
AUCs (MDA-MB-436, Breast): 3.33
AUCs (MDA-MB-453, Breast): 3.26
AUCs (ME-180, Uterus): 2.65
AUCs (MES-SA, Uterus): 2.67
AUCs (MES-SA/DX5, Uterus): 2.17
AUCs (MFE-296, Uterus): 3.24
AUCs (MIA PaCa-2, Pancreas): 3.15
AUCs (MKN1, Stomach/Gastric): 3.21
AUCs (MKN45, Stomach/Gastric): 3.54
AUCs (MKN74, Stomach/Gastric): 2.89
AUCs (MM.1S, Blood): 3.46
AUCs (MS751, Uterus/Cervix): 3.52
AUCs (NCI-H69, Lung): 3.75
AUCs (NCI-H146, Lung): 3.86
AUCs (NCI-H187, Lung): 2.89
AUCs (NCI-H209, Lung): 3.47
AUCs (NCI-H226, Lung): 2.98
AUCs (NCI-H292, Lung): 3.17
AUCs (NCI-H441, Lung): 3.85
AUCs (NCI-H446, Lung): 3.83
AUCs (NCI-H460, Lung): 3.13
AUCs (NCI-H522, Lung): 3.12
AUCs (NCI-H526, Lung): 3.6
AUCs (NCI-H596, Lung): 3.81
AUCs (NCI-H661, Lung): 3.43
AUCs (NCI-H727, Lung): 3.53
AUCs (NCI-H747, Large intestine/Colorectum): 3.19
AUCs (NCI-H929, Blood): 3.32
AUCs (NCI-H1048, Lung): 3.35
AUCs (NCI-H1563, Lung): 3.71
AUCs (NCI-H1581, Lung): 3.1
AUCs (NCI-H1648, Lung): 3.56
AUCs (NCI-H1650, Lung): 4.13
AUCs (NCI-H1666, Lung): 3.51
AUCs (NCI-H1688, Lung): 3.57
AUCs (NCI-H1781, Lung): 3.34
AUCs (NCI-H1838, Lung): 3.62
AUCs (NCI-H1915, Lung): 3.33
AUCs (NCI-H1975, Lung): 3.6
AUCs (NCI-H2009, Lung): 3.22
AUCs (NCI-H2052, Lung): 3.92
AUCs (NCI-H2087, Lung): 3.19
AUCs (NCI-H2452, Lung): 3.72
AUCs (NCI-N87, Stomach/Gastric): 3.09
AUCs (NUGC-3, Stomach/Gastric): 3.64
AUCs (NUGC-4, Stomach/Gastric): 3.11
AUCs (OCI-AML3, Blood/Leukemia): 3.62
IC50 (OCUM1, OCUM-1, Stomach/Gastric): 68.3 µM
AUCs (OCUM-1, Stomach/Gastric): 3.57
AUCs (OCUM-2D, Stomach/Gastric): 3.12
IC50 (OCUM-2D, Stomach/Gastric): 1.14 µM
AUCs (OCUM-2M, Stomach/Gastric): 2.88
IC50 (OCUM-2M, Stomach/Gastric): 0.848 µM
AUCs (OE19, Esophagus/gastric cardia): 3.44
IC50 (OSC19, OSC-19, Tongue): 34.5 µM
AUCs (OSC-19, Tongue): 3.85
AUCs (OVCAR-3, Ovary): 3.29
AUCs (OVCAR-8, Ovary): 3.05
AUCs (PANC-1, Pancreas): 3.13
AUCs (PC-3, Prostate): 3.82
IC50 (PL45, PL45, Pancreas): 0.993 µM
AUCs (PL45, Pancreas): 3.37
AUCs (RL95-2, Uterus): 2.63
AUCs (RPMI-2650, Nose): 3.04
AUCs (SCC-4, Tongue): 3.69
AUCs (SCC-9, Tongue): 3.31
AUCs (SCC-15, Tongue): 3.56
AUCs (SCC-25, Tongue): 3.29
AUCs (SCH, Stomach/Gastric): 3.48
AUCs (SF268, Brain&Nerves): 3.24
AUCs (SF-126, Brain&Nerves): 3.39
AUCs (SK-HEP-1, Liver): 3.05
AUCs (SK-MEL-5, Skin): 4.12
AUCs (SK-MEL-28, Skin): 4.18
AUCs (SK-OV-3, Ovary): 3.53
AUCs (SK-UT-1, Uterus): 3.67
AUCs (SNU-1, Stomach/Gastric): 3.25
AUCs (SNU-5, Stomach/Gastric): 3.11
AUCs (SNU-81, Colorectum): 3.54
IC50 (SNU-216, SNU-216, Stomach/Gastric): 124 µM
AUCs (SNU-216, Stomach/Gastric): 3.7
AUCs (SNU-354, Liver): 3.39
AUCs (SNU-423, Liver): 3.2
IC50 (SNU-484, SNU-484, Stomach/Gastric): 74.8 µM
AUCs (SNU-484, Stomach/Gastric): 3.64
IC50 (SNU-601, SNU-601, Stomach/Gastric): 0.331 µM
AUCs (SNU-601, Stomach/Gastric): 2.89
AUCs (SNU-620, Stomach/Gastric): 3.75
AUCs (SNU-638, Stomach/Gastric): 3.32
AUCs (SNU-668, Stomach/Gastric): 3.48
AUCs (SNU-719, Stomach/Gastric): 3.58
IC50 (SNU-719, Stomach/Gastric): 1320 µM
AUCs (SNU-C5, Large intestine/Colorectum): 3.5
AUCs (SW48, Colorectum): 3.74
AUCs (SW480, Colorectum): 3.62
IC50 (SW579, SW579, Thyroid): 50.5 µM
AUCs (SW579, Thyroid): 3.73
AUCs (SW626, Ovary): 3.89
AUCs (SW684, Soft tissue): 3.77
AUCs (SW756, Ovary): 3.75
AUCs (SW948, Colorectum): 3.37
AUCs (SW982, Soft tissue): 3.99
AUCs (SW1116, Colorectum): 3.82
AUCs (SW1271, Lung): 3.9
IC50 (SW1271, SW1271, Lung): 498 µM
AUCs (SW1990, Pancreas): 3.12
AUCs (T47D, Breast): 3.33
AUCs (T84, Colorectum): 3.57
AUCs (TE-1, Esophagus): 3.23
AUCs (TF-1, Blood): 3.24
AUCs (TJ905, Brain&Nerves): 3.68
AUCs (TT, Thyroid): 3.19
IC50 (TT, Thyroid): 2.17 µM
AUCs (U266B1, Blood): 3.41
AUCs (U-2 OS, Bone): 3.44
AUCs (UACC-812, Breast): 3.52
AUCs (UO.31, Kidney): 3.58
AUCs (WM-266-4, Skin): 3.87
AUCs (Y-79, Eye): 3.72
AUCs (YCC-1, Stomach/Gastric): 3.54
AUCs (YCC-2, Stomach/Gastric): 3.66
AUCs (YCC-6, Stomach/Gastric): 2.95
IC50 (YCC-6, Stomach/Gastric): 6.32 µM
AUCs (YCC-10, Stomach/Gastric): 3.64
IC50 (YCC-10, Stomach/Gastric): 412 µM
AUCs (YCC-11, Stomach/Gastric): 3.34
AUCs (ZR-75-30, Breast): 3.44
